Experimental data: patent publication US20060165814A1, “Amines, combination of amines and vanadium and amine vanadium salts for the treatment or prevention of dyslipidemia” (Genmedica Therapeutics SL, priority 2004, published 2006)

Tests used:
rat adipocytes = conditions: amine in combination with low concentrations of vanadate; cited from earlier work
[1] = system: streptozotocin-induced diabetic rats; test: Subcutaneous chronic administration, plasma triglyceride and free fatty acids in diabetic rats; format: in vivo, rat; conditions: subcutaneously infused for 28 days; B6V10 1.25 or 2.5 μmol/kg/day, V10 1.25 μmol/kg/day; streptozotocin (100 mg/kg) diabetic rats
Source text: FIG. 2A though 2D are bar graphs showing plasma concentrations of insulin (FIG. 2A), glucose (FIG. 2B), free fatty acids (FIG. 2C) and triglycerides (FIG. 2D) measured in nondiabetic rats (C), streptozotocin-induced diabetic rats (Diab) or diabetic rats treated for 28 days with subcutaneously infused decanadate (V10, 1.25 μmol/kg/day) or hexaquis(benzylammonium) decavanadate (B6V10) at two different doses (1.25 μmol/kg/day or 2.5 μmol/kg/day). * indicates the existance of statistically significant differences from the Diab group at p<0.05.
Subcutaneous administration of hexaquis(benzylammonium) decavanadate was tested to determine whether it ameliorated the dyslipidemia associated with diabetes. Diabetes was induced in rats by intravenous administration of a large dose of streptozotocin (100 mg/kg), causing a complete disappearance of plasma insulin and very high concentrations of plasma glucose (FIGS. 2A and 2B). Induction of diabetes was also associated with substantial increases in plasma free fatty acid and triglyceride concentrations compared to nondiabetic rats (FIGS. 2C and 2D). Under these conditions, subcutaneous treatment with different doses of hexaquis(benzylammonium) decavanadate normalized plasma concentrations of free fatty acids and triglycerides so that no differences between control and hexaquis(benzylammonium) decavanadate-treated rats were detectable (FIGS. 2C and 2D).

[2] = system: streptozotocin-induced diabetic rats; test: Subcutaneous chronic administration, plasma cholesterol in diabetic rats; format: in vivo, rat; conditions: subcutaneously infused for 28 days; B6V10 1.25 or 2.5 μmol/kg/day, V10 1.25 μmol/kg/day; streptozotocin (100 mg/kg) diabetic rats
Source text: FIG. 3A through 3D show plasma concentrations of total cholesterol (FIG. 3A), nonesterified cholesterol (FIG. 3B), esterified cholesterol (FIG. 3C) and HDL-cholesterol (FIG. 3D) measured in nondiabetic rats (C), streptozotocin-induced diabetic rats (Diab) or diabetic rats treated for 28 days with subcutaneously infused decanadate (V10, 1.25 μmol/kg/day) or hexaquis(benzylammonium) decavanadate (B6V10) at two different doses (1.25 μmol/kg/day or 2.5 μmol/kg/day). * indicates the existance of statistically significant differences from the Diab group at p<0.05.
Subcutaneous administration of hexaquis(benzylammonium) decavanadate was performed to determine the effect on altered plasma concentrations of cholesterol associated to diabetes. Diabetes was induced in rats by intravenous administration of a large dose of streptozotocin (100 mg/kg). Experimentally-induced Diabetes was associated with substantial increases in total plasma cholesterol and nonesterified cholesterol and a reduction in esterified cholesterol concentrations compared to nondiabetic rats (FIG. 3A). HDL-cholesterol concentrations were unaltered by diabetes […]. Under these conditions, subcutaneous treatment with different doses of hexaquis(benzylammonium) decavanadate reduced plasma concentrations of total cholesterol and nonesterified cholesterol and increased esterified cholesterol concentrations so no differences between control and hexaquis(benzylammonium) decavanadate-treated rats were detectable (FIG. 3C).

[3] = system: streptozotocin-induced diabetic rats; test: Oral chronic administration, plasma cholesterol in diabetic rats; format: in vivo, rat; conditions: single daily oral dose for 17 days, 5 μmol/kg/day day 0-7 and 10 μmol/kg/day day 8-17
Source text: FIG. 1 is a bar graph of the plasma concentration of cholesterol (Ch) (expressed in mmol/L) measured in nondiabetic rats (C), streptozotocin-induced diabetic rats (D) or diabetic rats treated for 17 days with a single daily oral dose of hexaquis(benzylammonium) decavanadate (5 μmol/kg/day between day 0 and day 7 and 10 μmol/kg/day from day 8 to day 17 of treatment) (BV). Cholesterol concentrations in the D group were statistically significant from the C group at p<0.05.
Oral administration of hexaquis(benzylammonium) decavanadate was tested to determine whether it ameliorated dyslipidemia associated to diabetes. Diabetes was induced in rats by intravenous administration of streptozotocin, causing a substantial increase in plasma cholesterol concentrations compared to nondiabetic rats (FIG. 1).

| Molecule | glucose transport (rat adipocytes) | plasma concentration of free fatty acids [1] | plasma concentration of triglycerides [1] | plasma concentration of esterified cholesterol [2] | plasma concentration of nonesterified cholesterol [2] | plasma concentration of total cholesterol [2] | plasma cholesterol levels [3] |
| --- | --- | --- | --- | --- | --- | --- | --- |
| NCc1ccccc1 [benzylamine] | stimulates glucose transport | – | – | – | – | – | – |
| [O]=[V]([O-])([O-])[O][V]1(=[O])[O][V]2(=[O])[O][V](=[O])([O][V](=[O])([O-])[O-])[O][V](=[O])([O]2)[O][V]2(=[O])[O][V](=[O])([O][V](=[O])([O-])[O-])[O][V](=[O])([O]1)[O]2 (stereo not shown) [decavanadate, reference compound] | – | did not alter | did not alter | not significantly different | not significantly different | significant reduction | – |
| NCCc1ccc(O)cc1 [tyramine] | stimulates glucose transport | – | – | – | – | – | – |
| hexaquis(benzylammonium) decavanadate | – | normalized | normalized | increased | reduced | reduced | substantially reduced |
